Assay results reported in article PMC7515716 (2020).

How the values were obtained:
[1] = system: xpt/pbuE*6U guanine riboswitch (RNA, riboswitch) AAAUUAAAUAGCUAUUAUCACGAUUUUUAUAAUCGCGUGGAUAUGGCACGCAAGUUUCUACCGGGCACCGUAAAUGUCCGACUAAAAAUCCUGAUUACAAAAUUUGUUUAUGACAUUUUUUGUAAUCAGGAUUUUUUAUUUAUCAAAACAUUUAAGUAAAGGAGUUUGUUAUGUUUUUUUUGGCCAGUGAAUUCGAGCUCGGUACCCGGGGAUCCUCUAGAAAUAUGGAUUACUUGGUAGAACAGCAAUCUACUCGACCUGCAGGCAUGCAAGCUUGGCGUAAUCAUGGUCAUAGCUGUUUCCUGUGUUUAUCCGCUCACAAUUCCACACAACAUACGAGCCGGAAGCAUAAAG; experiment: SPRINT: multiple-turnover transcription read-through, Cas13a fluorescence; details: 70 mM Na+ (NaCl), 2.5 mM Mg2+
[2] = system: ribD/pbuE*7U FMN riboswitch (RNA, riboswitch) AAAUUAAAUAGCUAUUAUCACGAUUUUUCGGGGCAGGGUGGAAAUCCCGACCGGCGGUAGUAAAGCACAUUUGCUUUAGAGCCCGUGACCCGUGUGCAUAAGCACGCGGUGGAUUCAGUUUAAGCUGAAGCCGACAGUGAAAGUCUGGAUGGGAGAAAAAUCCUGAUUACAAAAUUUGUUUAUGACAUUUUUUGUAAUCAGGAUUUUUUUAUUUAUCAAAACAUUUAAGUAAAGGAGUUUGUUAUGUUUUUUUUGGCCAGUGAAUUCGAGCUCGGUACCCGGGGAUCCUCUAGAAAUAUGGAUUACUUGGUAGAACAGCAAUCUACUCGACCUGCAGGCAUGCAAGCUUGGCGUAAUCAUGGUCAUAGCUGUUUCCUGUGUUUAUCCGCUCACAAUUCCACACAACAUACGAGCCGGAAGCAUAAAG; experiment: as above; details: 70 mM Na+ (NaCl), 10 mM Mg2+; SPRINT buffer, 37 °C; low-affinity response

| binding [1] | binding [2] | SMILES |
| --- | --- | --- |
| weak |  | CNc1nc2[nH]cnc2c(=O)[nH]1 |
|  | weak | Cc1cc2nc3c(=O)[nH]c(=O)nc-3n(C[C@H](O)[C@H](O)[C@H](O)COP(=O)(O)OP(=O)(O)OC[C@H]3O[C@@H](n4cnc5c(N)ncnc54)[C@H](O)[C@@H]3O)c2cc1C |
